“Also recorded” adds a separate entry of the source.
Columns and labels:
human neutrophils = experiment: Microfluidic Neutrophil Chemotaxis assay; format: cell-based; conditions: for neutrophil (NF) migration counts (FIG. 1): 4 hour timepoint, in the presence of Aspergillus fumigatus, Compound 1, Compound 11, caspofungin acetate 10 nM, fMLP 100 nM, relative to A. fumigatus alone
From the text: Two layers of photoresist (SU8; […] The wafer with patterned photoresist was used as a mold to produce polydimethylsiloxane (PDMS) (Fisher Scientific) devices, which were then bonded to the base of glass-bottom 12- or 24-well plates, using an oxygen plasma machine (Nordson-March). De-identified, fresh human blood samples from healthy volunteers, aged 18 years and older, who were not receiving immunosuppressants, were purchased from Research Blood Components, LLC. Peripheral blood was drawn in tubes containing a final concentration of 5 mM EDTA (Vacutainer; Becton Dickinson) and processed within 2 h of blood collection. Using a sterile technique, neutrophils were isolated from whole blood using HetaSep followed by the EasySep Human Neutrophil Enrichment Kit (STEMCELL Technologies) following the manufacturer's protocol. The purity of neutrophils was assessed to be >98% using the Sysmex KX-21N Hematology Analyzer (Sysmex America, Inc.). White blood cells were isolated using Hetasep followed by a 5 min spin down and wash with 1×PBS. White blood cells were stained with Hoechst (32.4 μM) (Sigma) following the manufacture's protocols. The final aliquots of white blood cells were resuspended in RPMI plus 10% fetal bovine serum (FBS−stock 50 mL FBS/450 mL RPMI) (Sigma-Aldrich) at a concentration of 20,000 cells/2 μL and kept at 37° C. Cells were then immediately introduced into the microfluidic device for the chemotaxis and Aspergillus fumigatus killing assay. All experiments were repeated at least three times with neutrophils or white blood cells from three different healthy donors. Immediately after bonding to the well plate, donut-shaped devices were filled with Aspergillus fumigatus conidia at a concentration of 10^6 cells/mL with or without either Compound 1 or Compound 11 [10 nM], caspofungin acetate [10 nM] and/or a solution of the chemoattractant N-formyl-methionyl-leucyl-phenylalanine (fMLP) [100 nM](Sigma-Aldrich, St. Louis, Mo.). The device was then placed in a vacuum for 15 min. The solution filled all of the FCCs as the air was displaced. The devices were then vigorously washed five times with 1×PBS to remove any residual Aspergillus fumigatus conidia, drug or chemoattractant that was outside of the FCCs. The device was then submerged in 0.5 mL of cell media. Neutrophils or white blood cells (20,000 cells/2 μL) were then pipetted into the cell loading chamber (CLC) using a gel-loading pipette tip. […] Image analysis of cell migration counts and fungi growth was analyzed by hand using Image J software. Neutrophil counts per chamber were counted every 15 min for the first 2 hours of the experiment and then every hour for the remaining 16 hours. Percentage of conidia that converted to hyphal growth was measured by counting conidia loaded per chamber before neutrophils or WBCs were loaded into the chamber and counting numbers of these conidia that grew hyphae by 18 hours. Fungal growth velocity was calculated using Image J. The 16 chambers in each device (n=3) were analyzed for at least three different healthy donors.

[1] = tested on: Aspergillus fumigatus strain AF293; experiment: Microfluidic Aspergillus fumigatus Killing Assay with human neutrophils; format: cell-based; conditions: for timecourse of A. fumigatus (Af) growth in FCCs (FIG. 4): in presence of PMNs, three healthy blood donors, t=0, 8, and 16 hours; for percent hyphal growth compared to remaining conidia (FIG. 2): with added neutrophils (NFs), Compound 1, Compound 11, caspofungin acetate 10 nM, fMLP 100 nM, hyphae by 18 hours
From the text: Microfluidic devices used to measure leukocyte migration in response to Aspergillus fumigatus with or without drug (Compound 1 or Compound 11), antifungal control (caspofungin acetate) and/or chemoattractant (fMLP) were manufactured using known microfabrication techniques. Two layers of photoresist (SU8; Microchem), the first one 10 μm thin (corresponding to the migration channels) and the second one 70 μm thick, corresponding to the focal chemotactic chambers (FCCs) were patterned on one silicon wafer sequentially using two photolithographic masks and processing cycles according to the instructions from the manufacturer. The wafer with patterned photoresist was used as a mold to produce polydimethylsiloxane (PDMS) (Fisher Scientific) devices, which were then bonded to the base of glass-bottom 12- or 24-well plates, using an oxygen plasma machine (Nordson-March).
Aspergillus fumigatus strain AF293 expressing either cytosolic red fluorescent protein (RFP) or green fluorescent protein (GFP) was grown on Sabouraud dextrose agar plates supplemented with 100 μg/mL ampicillin at 30° C. for 3-4 days. Conidia were harvested by gentle scraping followed by washing in ice-cold phosphate buffered saline (PBS) three times. Conidia were immediately used or stored at 4° C. for use within one week.
De-identified, fresh human blood samples from healthy volunteers, aged 18 years and older, who were not receiving immunosuppressants, were purchased from Research Blood Components, LLC. Peripheral blood was drawn in tubes containing a final concentration of 5 mM EDTA (Vacutainer; Becton Dickinson) and processed within 2 h of blood collection. Using a sterile technique, neutrophils were isolated from whole blood using HetaSep followed by the EasySep Human Neutrophil Enrichment Kit ([…] Technologies) following the manufacturer's protocol. The purity of neutrophils was assessed to be >98% using the Sysmex KX-21N Hematology Analyzer (Sysmex America, Inc.). White blood cells were isolated using Hetasep followed by a 5 min spin down and wash with 1×PBS. White blood cells were stained with Hoechst (32.4 μM) (Sigma) following the manufacture's protocols. The final aliquots of white blood cells were resuspended in RPMI plus 10% fetal bovine serum (FBS−stock 50 mL FBS/450 mL RPMI) (Sigma-Aldrich) at a concentration of 20,000 cells/2 μL and kept at 37° C. Cells were then immediately introduced into the microfluidic device for the chemotaxis and Aspergillus fumigatus killing assay. All experiments were repeated at least three times with neutrophils or white blood cells from three different healthy donors.
Immediately after bonding to the well plate, donut-shaped devices were filled with Aspergillus fumigatus conidia at a concentration of 10^6 cells/mL with or without either Compound 1 or Compound 11 [10 nM], caspofungin acetate [10 nM] and/or a solution of the chemoattractant N-formyl-methionyl-leucyl-phenylalanine (fMLP) [100 nM](Sigma-Aldrich, St. Louis, Mo.). The device was then placed in a vacuum for 15 min. The solution filled all of the FCCs as the air was displaced. The devices were then vigorously washed five times with 1×PBS to remove any residual Aspergillus fumigatus conidia, drug or chemoattractant that was outside of the FCCs. The device was then submerged in 0.5 mL of cell media. Neutrophils or white blood cells (20,000 cells/2 μL) were then pipetted into the cell loading chamber (CLC) using a gel-loading pipette tip. Neutrophil migration into the migration channel toward the FCC started immediately and was recorded using time-lapse imaging on a fully automated Nikon TiE microscope (10× magnification) with biochamber heated to 37° C. with 5% carbon dioxide gas. Image analysis of cell migration counts and fungi growth was analyzed by hand using Image J software.
Image analysis of cell migration counts and fungi growth was analyzed by hand using Image J software.

Molecule | neutrophil (NF) migration counts (FIG. 1) (human neutrophils) | timecourse of A. fumigatus (Af) growth in FCCs (FIG. 4) [1] | percent hyphal growth compared to remaining conidia (FIG. 2) [1] | timecourse of neutrophil (PMNs) migration in FCCs (FIG. 4) (human neutrophils; with A. fumigatus, three healthy blood donors, t=0, 8, and 16 hours)
caspofungin acetate [reference compound] | did not give increased NF migration | growth of Af |  | 
CC[C@H](C)C[C@H](C)CCCCCCCCC(=O)N[C@H]1C[C@@H](O)[C@@H](NCCN)NC(=O)[C@@H]2[C@@H](O)CCN2C(=O)[C@H]([C@H](O)CCNC(=O)[C@H](Cc2ccccc2)NC(=O)[C@H](CC(C)C)NC(=O)[C@H](CCSC)NC=O)NC(=O)[C@H]([C@H](O)[C@@H](O)c2ccc(O)cc2)NC(=O)[C@@H]2C[C@@H](O)CN2C(=O)[C@H]([C@@H](C)O)NC1=O [Compound 1] | increased NF migration |  | inhibition of Aspergillus fumigatus hyphal growth; also recorded: able to suppress hyphal growth | 
CC[C@H](C)C[C@H](C)CCCCCCCCC(=O)N[C@H]1C[C@@H](O)[C@@H](OCCN)NC(=O)[C@@H]2[C@@H](O)CCN2C(=O)[C@H]([C@H](O)CCNC(=O)[C@H](Cc2ccccc2)NC(=O)[C@H](CC(C)C)NC(=O)[C@H](CCSC)NC=O)NC(=O)[C@H]([C@H](O)[C@@H](O)c2ccc(O)cc2)NC(=O)[C@@H]2C[C@@H](O)CN2C(=O)[C@H]([C@@H](C)O)NC1=O [Compound 11] | increased NF migration | inhibition of growth of Af | inhibition of Aspergillus fumigatus hyphal growth; also recorded: able to suppress hyphal growth | migration of PMNs

Reference: patent publication US20160213742A1, “COMPOSITIONS AND METHODS FOR THE TREATMENT OF FUNGAL INFECTIONS” (priority 2013, published 2016)
